What was measured:
Assay type in all cases: cell-based
[1] = tested on: human aortic smooth muscle cells (hAoSMC); assay: Scratch wound assay of human aortic SMCs (cell migration); set-up: VSMC migration (wound reclosure) / VSMC migration versus control: dose or concentration left out as unconfirmed; details: for wound reclosure: 100 μM OAG
Procedure: (§1) Human aortic smooth muscle cells (hAoSMC) were purchased from PromoCell (Heidelberg, Germany) and cultured at 37° C. in a humidified 5% CO2 atmosphere in the recommended cell culture medium (PromoCell, Heidelberg, Germany).
For scratch wound assays, cells were seeded in 24 well plates at a density of 100,000 cells per well. After they had grown to confluence for 24 h the cell monolayer was scratched in the middle with a 200 μl pipette tip. Cells were washed with PBS and incubated in growth medium supplemented with OAG (Sigma-Aldrich, St. […] Wound area was measured directly after the scratch (t0) and after 6 h (t1), 8 h (t2) and 12 h (t3) with a phase-contrast microscope (Axiovert 100, Zeiss, Oberkochen, Germany) and assessed with ImageJ version 1.47v. Wound reclosure was measured as Δt0-t1 (6 h), Δt0-t2 (8 h), and Δt0-t3 (12 h) in pixels. Scratch assays were performed in triplicates. For radius assays, 24-well plates were coated with gelatin solution (Pelobiotech, Planegg, Germany). Culture cylinders (total diameter 4 mm, inner diameter 2 mm; Bioptechs, Butler, Pa., USA) were then placed in the middle of the well and cells were seeded at a density of 100,000 cells per well around the cylinders. 20 μL of SAR 7334 with a final concentration of 100 nM in gelatin were added to the inner of the cylinders. 1% DMSO was used as control. After 24 h of incubation cylinders were removed and pictures were acquired immediately (t0) and after 48 h (t1) using a phase-contrast microscopy system (Axiovert 100, Zeiss, Oberkochen, Germany). Wound reclosure was measured as Δt0-t1 (48 h) in pixels. Measurements were performed in duplicates.
For scratch wound assays, cells were seeded in 24 well plates at a density of 100,000 cells per well. After they had grown to confluence for 24 h the cell monolayer was scratched in the middle with a 200 μl pipette tip. Cells were washed with PBS and incubated in growth medium supplemented with OAG (Sigma-Aldrich, St. Louis, Mo., USA) at final concentration of 100 μM or SAR 7334 (Bio-Techne, Wiesbaden, Germany) at a final concentration of 100 nM. 1% DMSO was used as control. Wound area was measured directly after the scratch (t0) and after 6 h (t1), 8 h (t2) and 12 h (t3) with a phase-contrast microscope (Axiovert 100, Zeiss, Oberkochen, Germany) and assessed with ImageJ version 1.47v. Wound reclosure was measured as Δt0-t1 (6 h), Δt0-t2 (8 h), and Δt0-t3 (12 h) in pixels. Scratch assays were performed in triplicates. For radius assays, 24-well plates were coated with gelatin solution (Pelobiotech, Planegg, Germany). Culture cylinders (total diameter 4 mm, inner diameter 2 mm; Bioptechs, Butler, Pa., USA) were then placed in the middle of the well and cells were seeded at a density of 100,000 cells per well around the cylinders. 20 μL of SAR 7334 with a final concentration of 100 nM in gelatin were added to the inner of the cylinders. 1% DMSO was used as control. After 24 h of incubation cylinders were removed and pictures were acquired immediately (t0) and after 48 h (t1) using a phase-contrast microscopy system (Axiovert 100, Zeiss, Oberkochen, Germany). Wound reclosure was measured as Δt0-t1 (48 h) in pixels. Measurements were performed in duplicates.

[2] = tested on: human aortic smooth muscle cells (hAoSMC); assay: Radius migration assay of human aortic SMC on SAR7334 coating; details: culture dish coated with SAR7334 (100 nM in gelatin), 48 h
Procedure: as §1
For scratch wound assays, cells were seeded in 24 well plates at a density of 100,000 cells per well. After they had grown to confluence for 24 h the cell monolayer was scratched in the middle with a 200 μl pipette tip. Cells were washed with PBS and incubated in growth medium supplemented with OAG (Sigma-Aldrich, St. Louis, Mo., USA) at final concentration of 100 μM or SAR 7334 (Bio-Techne, Wiesbaden, Germany) at a final concentration of […]. 1% DMSO was used as control. Wound area was measured directly after the scratch (t0) and after 6 h (t1), 8 h (t2) and 12 h (t3) with a phase-contrast microscope (Axiovert 100, Zeiss, Oberkochen, Germany) and assessed with ImageJ version 1.47v. Wound reclosure was measured as Δt0-t1 (6 h), Δt0-t2 (8 h), and Δt0-t3 (12 h) in pixels. […] Wound reclosure was measured as Δt0-t1 (48 h) in pixels. […]
For scratch wound assays, cells were seeded in 24 well plates at a density of 100,000 cells per well. […] Wound area was measured directly after the scratch (t0) and after 6 h (t1), 8 h (t2) and 12 h (t3) with a phase-contrast microscope (Axiovert 100, Zeiss, Oberkochen, Germany) and assessed with ImageJ version 1.47v. […]

[3] = tested on: human aortic smooth muscle cells (hAoSMC); assay: Cell proliferation assay, BrdU ELISA; details: 100 μM OAG; vehicle 0.08±0.03, p<0.01
Procedure: as §1
Cell proliferation was assessed using of a colorimetric bromodeoxyuridine (BrdU) enzyme-linked immunosorbent assay (ELISA) according to manufacturer's protocol (Roche Applied Science, Penzberg, Germany). Briefly, cells were seeded in 96 well plates at a density of 10,000 cells per well in starving medium, i.e., lacking FBS and growth factors. After 24 h, the starving medium was replaced by growth medium which was either supplemented with 1-Oleoyl-2-acetyl-sn-glycerol (OAG; Sigma-Aldrich, St. Louis, Mo., USA) at a final concentration of 100 μM, SAR 7334 (Tocris Bioscience, Bristol, UK) at a final concentration of 100 nM or with 1% of DMSO which was used as vehicle. After incubation for another 24 h, 10 μl of BrdU solution were added. Absorbance was measured at 370 nm with a reference wavelength of 492 nm in the Infinite M200 PRO microplate reader using the iControl v1.10 software (both Tecan Group, Männedorf, Switzerland) after further 24 h. Measurements were performed in triplicates.

SMILES | VSMC migration versus control ([1]; 6 hours after injury) | VSMC migration versus control ([1]; 8 hours after injury) | VSMC migration (wound reclosure) ([1]; 12 hours after scratch, control 130.0±10.6, p=0.04) | local migration versus control culture [2] | wound reclosure ([1]; 12 hours after scratch, vehicle 156.93±7.06, p=0.01) | wound reclosure ([1]; eight hours after scratch, vehicle 69.05±7.03, p=0.01) | proliferation of human VSMCs (BrdU ELISA) [3] [absorbance units]
N#Cc1ccc(O[C@@H]2c3ccccc3C[C@H]2N2CCC[C@@H](N)C2)c(Cl)c1 [SAR7334] | comparable to control levels | comparable to control levels | 111.4±15.5 10^3 pixels | reduced local migration | – | – | –
CCCCCCCC/C=C\CCCCCCCC(=O)OC[C@H](CO)OC(C)=O [OAG, 1-oleoyl-2-acetyl-sn-glycerol] | – | – | – | – | 179.14±3.61 10^3 pixels | 93.09±3.67 10^3 pixels | 0.31±0.07

Source: patent US20230137816A1, “ADMINISTRATION OF CALCIUM CHANNEL TRPC6 INHIBITORS USING BALLOONS, STENTS OR OTHER MEDICAL DEVICES” (DEUTSCHES HERZZENTRUM MUENCHEN DES FREISTAATES BAYERN, priority 2020, published 2023)
